Target: T1, mutant integrin CD11bE320A/CD18 (Homo sapiens, UniProt P11215, E336A)
T1 construct: expressed in transfected cells; host or cells: K562 (ATCC)
Assay: HTS cell adhesion assay, K562 E320A cells on immobilized fibrinogen
Format: cell-based
Settings: Table 3, adhesion to fibrinogen, five point dose-response
Description: K562 cells stably expressing CD11c/CD18 (K562 CD11c/CD18) were generated similarly. […] K562 cells stably transfected with mutant integrin CD11bE320A/CD18 (K562 E320A) were generated according to literature protocols. All cell lines were maintained in Iscove's Modified Dulbecco's Medium (IMDM) supplemented with 10% heat-inactivated fetal bovine serum, 50 IU/mL penicillin and streptomycin and 0.5 mg/mL G418.
Cell adhesion assays with immobilized ligands were performed using the general protocol previously described and as illustrated in FIG. 1 [33]. Assays with all different K562 cell lines (K562, K562 CD11b/CD18, K562 CD11c/CD18 and K562 E320A) were performed in an identical fashion. Briefly, 384-well microplates (Corning 3700) were coated with 15 μg/mL fibrinogen (Fg) ligand in PBS^++ overnight at 4° C. At the same time, anti-CD18 (IB4) mAb was also coated. Subsequently, the coated wells were washed with 1% nonfat milk in TBS at room temperature for 1 hour. Next, the wells were washed 3 times with TBS, and the coated microplates were used in the HTS assays.
K562 CD11b/CD18, K562 CD11bE320A/CD18 and K562 CD11c/CD18 cells were washed with TBS, and cells were transferred to the Fg-coated wells of microplates in the assay buffer (Ca^2+ and Mg^2+ for physiological condition, Mn^2+ as the Positive control). A 1 μL aliquot of the compounds were transferred to each washed well with multichannel pipet from the 384-well plates.
The assay plates were incubated at 37° C. in the presence of small-molecule compounds for 30 min. To dislodge the non-adherent cell, the assay plates were gently inverted and kept in inverted position for 20 min at room temperature.
The cells were fixed with 37% formaldehyde in a small volume and the plates were kept inverted for 1 h. Upon the fixation, the solutions in the well were discarded. Next, the cells were fluorescently labeled with DAPI (0.5 μM final in TBS with 0.1% Triton X-100) and the quantitated with “Opera High Content Screening System” (Perkin Elmer).
Cell-adhesion under positive and negative control conditions was used to define the activity scale; signal corresponding to the number of non-small molecule treated cells adherent in activating buffer condition (in the presence of Mn^2+ ions as agonist, PC) was considered maximum (100% binding) and the signal corresponding to the number of non-small molecule treated cells adherent in basal buffer condition (in the presence of 1 mM each of Ca^2+ and Mg^2+, NC) was considered minimum (0% binding).

T1 sequence (P11215 17-1152 E336A): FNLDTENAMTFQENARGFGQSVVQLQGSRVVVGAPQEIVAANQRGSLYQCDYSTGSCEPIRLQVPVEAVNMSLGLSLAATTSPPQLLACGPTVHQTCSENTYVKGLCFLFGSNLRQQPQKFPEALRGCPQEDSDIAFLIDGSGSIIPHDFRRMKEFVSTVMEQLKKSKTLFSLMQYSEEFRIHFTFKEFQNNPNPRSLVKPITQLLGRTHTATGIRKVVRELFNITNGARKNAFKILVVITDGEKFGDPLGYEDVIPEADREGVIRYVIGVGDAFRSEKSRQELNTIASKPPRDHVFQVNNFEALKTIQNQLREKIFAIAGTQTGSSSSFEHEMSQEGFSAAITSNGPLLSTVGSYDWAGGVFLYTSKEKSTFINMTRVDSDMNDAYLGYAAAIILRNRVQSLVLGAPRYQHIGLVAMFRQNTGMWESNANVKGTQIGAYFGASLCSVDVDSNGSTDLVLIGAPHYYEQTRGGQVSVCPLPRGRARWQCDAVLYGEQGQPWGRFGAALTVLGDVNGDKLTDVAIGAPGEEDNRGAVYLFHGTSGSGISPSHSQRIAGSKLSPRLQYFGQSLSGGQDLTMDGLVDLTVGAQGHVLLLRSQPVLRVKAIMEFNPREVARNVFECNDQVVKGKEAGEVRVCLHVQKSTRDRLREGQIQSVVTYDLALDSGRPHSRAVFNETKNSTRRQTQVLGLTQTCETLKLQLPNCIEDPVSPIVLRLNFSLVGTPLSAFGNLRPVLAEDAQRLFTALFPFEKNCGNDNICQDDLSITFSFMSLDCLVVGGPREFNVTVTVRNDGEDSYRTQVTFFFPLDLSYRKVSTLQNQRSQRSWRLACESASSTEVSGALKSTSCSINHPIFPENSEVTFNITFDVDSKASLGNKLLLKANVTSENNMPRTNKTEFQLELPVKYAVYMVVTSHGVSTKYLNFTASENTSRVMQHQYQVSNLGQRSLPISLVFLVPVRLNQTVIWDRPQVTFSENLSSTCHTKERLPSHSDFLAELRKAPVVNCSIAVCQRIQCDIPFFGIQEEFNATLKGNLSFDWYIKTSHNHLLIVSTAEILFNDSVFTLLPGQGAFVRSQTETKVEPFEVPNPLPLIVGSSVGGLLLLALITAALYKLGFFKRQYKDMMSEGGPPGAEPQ
T1 sequence (P05107 23-769 partner): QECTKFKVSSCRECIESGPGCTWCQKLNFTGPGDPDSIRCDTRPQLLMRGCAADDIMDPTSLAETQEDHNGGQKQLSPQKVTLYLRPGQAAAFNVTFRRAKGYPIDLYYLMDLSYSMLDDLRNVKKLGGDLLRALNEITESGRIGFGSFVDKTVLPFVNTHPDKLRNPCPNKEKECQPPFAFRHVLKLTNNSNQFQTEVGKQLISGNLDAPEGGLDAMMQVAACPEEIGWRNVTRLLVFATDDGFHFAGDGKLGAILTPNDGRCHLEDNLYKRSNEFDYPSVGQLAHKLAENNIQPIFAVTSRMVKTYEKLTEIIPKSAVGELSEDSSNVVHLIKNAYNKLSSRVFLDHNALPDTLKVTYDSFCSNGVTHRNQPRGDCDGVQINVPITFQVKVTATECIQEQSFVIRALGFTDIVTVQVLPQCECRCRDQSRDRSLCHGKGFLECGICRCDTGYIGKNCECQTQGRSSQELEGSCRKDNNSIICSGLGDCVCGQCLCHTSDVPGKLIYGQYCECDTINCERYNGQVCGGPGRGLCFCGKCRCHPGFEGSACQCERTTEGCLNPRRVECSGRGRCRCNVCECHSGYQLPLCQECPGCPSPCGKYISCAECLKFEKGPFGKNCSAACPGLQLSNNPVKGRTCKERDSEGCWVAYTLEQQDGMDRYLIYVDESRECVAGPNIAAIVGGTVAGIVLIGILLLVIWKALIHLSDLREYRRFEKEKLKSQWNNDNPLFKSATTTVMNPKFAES

Structure (SMILES) | EC50 [µM] | EC50 E320A
COC(=O)/C(=C1/Oc2cc3c(cc2S1)OCO3)C(F)(F)F [Compound 3237460] | 135 | 
CCc1nc(SCC(=O)Nc2nnc(CC)s2)c2c(C)c(C)sc2n1 [Compound 3197508] | 8.48 | 
CC(C)c1nnc(NC(=O)c2c(O)c3cccc4c3n(c2=O)CCC4)s1 [Compound 54680928] | 16.1 | 
O=C(NCc1ccco1)c1c2c(nc3ccccc13)CCC2 [Compound 862194] | 15.2 | 
N#Cc1c(-c2ccccc2)cc(-c2ccco2)c(C#N)c1N [Compound 625239] | 7.74 | 
Cc1sc2nc(CSc3nc4ccccc4c(=O)n3CCCN3CCOCC3)[nH]c(=O)c2c1C [Compound 2566737] | 8.42 | 
Cc1ccnc(N/C=C(\C#N)c2nc(-c3cccc(Br)c3)cs2)c1 [Compound 1352154] | 8.01 | 
CCCCn1c(=O)[nH]c(=O)c2c1nc(-c1ccc(-c3ccccc3Br)o1)n2CCOC [Compound 3908086] | 12.2 | 
O=C1NC(=O)N(c2ccc(F)cc2)C(=O)/C1=C/c1ccc2c(c1)CCCN2Cc1ccccc1 [Compound 1997460] | 6.23 | 
CCC(C)N1C(=O)/C(=C/c2ccc3c(c2)CCN3CCCCl)C(=O)NC1=S (centres unmarked) [Compound 6513263] | 13.9 | 
CC(C)CN(C(=O)COC(=O)c1cc2c(s1)CCC2)C1CCS(=O)(=O)C1 (centres unmarked) [Compound 2998734] | 8.02 | 
O=C(/C=C/c1ccc(Cl)cc1)NC(=S)Nc1ccc(N2CCOCC2)c(Cl)c1 [Compound 1345254] | 7.53 | 
NC(=S)N/N=C/c1coc2cc(Cl)ccc2c1=O [Compound 6879466] | 171 | 
Cc1ccc(CN2C(=O)C3CCCN3c3ccc(S(=O)(=O)N4CCOCC4)cc32)cc1 (centres unmarked) [Compound 2766156] | 10.7 | 
O=C(Cc1cccs1)Nc1nnc(SCc2cccc3ccccc23)s1 [Compound 7191378] | 8.13 | 
O=C(Cc1coc2cc3c(cc12)CCC3)OCc1cc(=O)n2c(n1)sc1ccccc12 [Compound 3000165] | 9.02 | 
CSc1nc(NCCOCCO)c2sc3nc(-c4ccco4)c4c(c3c2n1)CCC4 [Compound 665043] | 9.23 | 
O=C(CN1CCc2ccccc21)Nc1ccc2c(c1)OCO2 [Compound 2064203] | 8.97 | 
C=CCn1c(SCC(=O)Nc2sccc2C#N)nc2sc(C)c(C)c2c1=O [Compound 1564171] | 14.8 | 
O=C(CNC(=O)c1cc2c(s1)CCC2)Nc1ccccc1Br [Compound 2537029] | 8760 | 
N#Cc1ccsc1NC(=O)CSc1ncnc2ccccc12 [Compound 2369720] | 11.3 | 
O=C(COC(=O)c1c2c(nc3ccccc13)/C(=C/c1cccc([N+](=O)[O-])c1)CCC2)NC1CCS(=O)(=O)C1 (centres unmarked) [Compound 5950432] | 9.83 | 
COc1cc(/C=C2/SC(=S)N(c3ccccc3)C2=O)ccc1Oc1nc(N2CCOCC2)nc(N2CCOCC2)n1 [Compound 5343920] |  | Very Low
CC1CCc2c(sc(NC(=O)c3ccc(Cn4cc(Br)cn4)o3)c2C(N)=O)C1 (centres unmarked) [Compound 2941732] | 35.6 | 
CCCSc1nnc(NC(=O)c2sc3nc(-c4cccs4)ccc3c2N)s1 [Compound 1773030] | 7.74 | 
COC(=O)c1c(NC(=O)CN2CCC3(O)CCCCC3C2c2ccc(OC)cc2OC)sc(C)c1C (centres unmarked) [Compound 4971819] | 60.2 | 
CCC(=O)Nc1ccc(C(=O)CSc2nnc(-c3ccccc3F)n2C2CC2)cc1 [Compound 2448744] | 21.8 | 
CC(=O)c1cccc(NC(=O)Nc2cc3sccc3n2C)c1 [Compound 5307308] | 18.7 | 
CC(C)CCn1c(SCC(=O)N2CC(=O)Nc3ccccc32)nc2scc(-c3cccs3)c2c1=O [Compound 2566842] | 7.57 | 

Next, values leading:

EC50 [µM] | EC50 E320A | Structure (SMILES)
0.441 |  | COc1cc2c(cc1NC(=O)c1cc(-c3ccncc3)nc3ccccc13)oc1ccccc12 [Compound 2098333]
26.1 |  | COc1ccc2c(c1)c1nc3ccccc3nc1n2Cc1ccc(OC)c(OC)c1 [Compound 2023256]
8.59 |  | Cc1csc(NC(=O)c2cc(-c3ccco3)nc3ccccc23)n1 [Compound 2366866]
7.82 |  | Cc1nn2c(-c3cccc(NC(=O)CSc4nc5ccccc5o4)c3)nnc2c2ccccc12 [Compound 1290769]
9.94 |  | CCN(CC)C(=O)c1sc(NC(=O)c2cc(-c3ccc(C)s3)nc3ccccc23)c(C(=O)OC)c1C [Compound 1219756]
12.2 |  | COc1ccc2cc(/C=N/NC(=O)c3ccc(CN(c4ccc(C)c(C)c4)S(C)(=O)=O)cc3)c(Cl)nc2c1 [Compound 9564362]
13 |  | O=C(NCC1OCCc2ccccc21)c1ccc(NC(=O)c2ccc(Cl)cc2)cc1 (centres unmarked) [Compound 5212443]
9.93 |  | CCOC(=O)N1CCC(NC(=O)c2cccc3c2C(=O)N(c2ccc(OC)cc2)C3)CC1 [Compound 5307705]
13 |  | COc1ccc(N(CC(=O)N/N=C/c2ccc(-c3ccc([N+](=O)[O-])cc3)o2)S(=O)(=O)c2ccc(C)cc2)cc1 [Compound 5334631]
16.9 |  | Cc1ccc(C)c(N(CC(=O)N/N=C/c2ccc(-c3ccc([N+](=O)[O-])cc3)o2)S(=O)(=O)c2ccccc2)c1 [Compound 5334671]
11.7 |  | O=[N+]([O-])c1ccc(-c2ccc(/C=N/c3c(-c4ccco4)nc4ccccn34)o2)c(Cl)c1 [Compound 9617832]
8.76 |  | COc1cccc2sc(Nc3nc(-c4cc5ccccc5oc4=O)cs3)nc12 [Compound 7109922]
 | Infinite | COc1ccc(-c2cc(C(=O)OCC(=O)Nc3ccc4c(c3)OCO4)c3ccccc3n2)cc1 [Compound 2338283]
7.04 |  | O=c1nc2s/c(=C\c3ccco3)c(=O)n2nc1Cc1ccc(F)cc1 [Compound 1844411]
12.9 |  | NS(=O)(=O)c1ccc(NC(=S)NC(=O)c2ccc(-c3ccccc3)cc2)cc1 [Compound 1011163]
10.3 |  | CCC(=O)Nc1ccc(C(=O)CSc2nc3ccc(C)cc3[nH]2)cc1 [Compound 2549650]
20.4 |  | COc1ccc(-n2c(SCC(=O)Nc3nccs3)nc3sc4c(c3c2=O)CCN(C)C4)cc1 [Compound 664564]
8.84 |  | O=C(NCCN1C(=O)S/C(=C\c2ccccc2)C1=O)c1cc(S(=O)(=O)N2CCOCC2)c(Cl)cc1Cl [Compound 5774232]

EC50 [µM] | EC50 E320A | Structure (SMILES)
8.98 |  | COc1ccc(C2C(C(C)=O)=C(C)N=c3s/c(=C/c4ccc5c(c4)OCO5)c(=O)n32)cc1 (centres unmarked) [Compound 5287341]
15.7 |  | COc1ccc(OC)c(NS(=O)(=O)Cc2ccccc2)c1 [Compound 743624]
7.82 |  | O=C1NN(c2ccc(Cl)c(Cl)c2)C(=O)/C1=C/c1cccc(OC(=O)c2cccs2)c1 [Compound 1016780]
9.86 |  | CCOc1ccc(C(=O)Nc2ccc(N3CCCC3)cc2)cc1 [Compound 650825]
999 |  | COc1ccc(C2=Nc3nc(-c4ccccc4)cn3C(c3ccc(OC)cc3)C2)cc1 (centres unmarked) [Compound 4325421]
10.5 |  | COc1ccc(/C=N/NC(=O)C2c3ccccc3-c3ccccc32)cc1 [Compound 9557044]
8.85 |  | O=C1c2cccc(OCC(=O)N3N=C(c4cccs4)CC3c3ccc(F)cc3)c2CCN1Cc1cccnc1 (centres unmarked) [Compound 4168394]
46.2 |  | CN(C)c1ccc(NC(=O)Cn2ncn3c(cc4ccccc43)c2=O)cc1 [Compound 3244843]
17.5 |  | COc1cccc2cc(/C(C)=N/Nc3nc(-c4cc(C)ccc4C)cs3)c(=O)oc12 [Compound 9594695]
10.8 |  | Cc1ccc2nc3sc(C(=O)Nc4ccc(N5CCOCC5)cc4)c(N)c3cc2c1 [Compound 1442651]
9.23 |  | O=C(CNS(=O)(=O)c1cccc(Cl)c1)Nc1ccc(-c2nc3ccccc3s2)cc1 [Compound 984329]
9.97 |  | CN(C)c1ccc(NC(=O)CN2C(=O)CC(c3ccccc3)=Nc3ccccc32)cc1 [Compound 656131]
12.6 |  | O=C(Nc1nc2c(s1)CCCC2)c1cc(-c2ccncc2)nc2ccccc12 [Compound 2462581]
7.03 |  | COc1ccc(/C=c2\sc3nc(-c4ccccc4OC)nn3c2=O)c(OC)c1 [Compound 1827856]
121 |  | CCOC(=O)C(Cc1ccccc1)C(=O)Nc1ccc(NC(=O)C(Cc2ccccc2)C(=O)OCC)cc1 (centres unmarked) [Compound 2836867]
72.4 |  | CCN(CC)c1ccc(C(=O)OCC(=O)Nc2cc3oc4ccccc4c3cc2OC)cc1 [Compound 2078838]
11.3 |  | Cc1nc2c(c(=O)n1CCC1=CCCCC1)c1nc3ccccc3nc1n2/N=C/c1ccco1 [Compound 6880170]
9.42 |  | COc1ccc2c(c1)cc(C)c1nnc(SCC(=O)N(C)c3nc(-c4ccccc4)cs3)n12 [Compound 1135734]
